According to patent US20220211735A1, “MEDICAMENT AND COMBINATION PRODUCT USED FOR PREVENTING, ALLEVIATING AND/OR TREATING FIBROSIS, AND USE THEREOF” (priority 2019, published 2022):

Experiments:
[1] = test system: COL1A1, TGFB1, ACTA2, MMP2 mRNA in lung fibroblasts MRC-5; assay: Real-time PCR of main fibrosis markers in lung fibroblasts MRC-5 induced by TGFβ1; type: cell-based; details: TGF-β1 3 ng/ml, 24 hours
Description: Method for TGFβ1 inducing lung fibroblasts MRC-5 and administrating Carrimycin or Isovalerylspiramycin I comprises: MRC-5 was cultured in a MEM (Gibco 11095-080) culture medium containing 10% fetal bovine serum, a mixture of 1% penicillin and 1% streptomycin and 1% non-essential amino acids at 37 DEG C and 5% CO2, and was plated in a 6-well according to 3×10^5 cells per well. After culturing for 24 hours, the original culture medium in the 6-well plate was removed by a vacuum pump, and MEM culture medium without 10% fetal bovine serum was added to be starvation culture for 24 hours. And then TGF-β1 (3 ng/ml) induction was added, and at the same time different concentration gradients of Carrimycin and Isovalerylspiramycin I were added. The concentrations were 10 μmol/L, 20 μmol/L, 40 μmol/L. The following groups were set, control group (without adding TGF-β1 induction), TGF-β1 induction group (only TGF-β1 induction is added) and TGF-β1 induction administration group (both adding TGF-β1 induction and treating with Carrimycin or Isovalerylspiramycin I).
After culturing for 24 hours, the culture medium was discarded, and the Total RNA of MRC-5 cells were extracted according to the operation steps of the TRIzol instructions. According to the operation steps of the instructions of Roche Transcriptor First Strand cDNA Synthesis Kit, Total RNA of […] was reversely transcribed into cDNA. The cDNA, sterile water, Roche FastStart Universal Probe Master (Rox) and ABI TaqMan probes (GAPDH, COL1A1, TGFB1, ACTA2, MMP2) were prepared into a 20 μl reaction system, and the ABI 7500 Fast Real-time PCR System was used for detection. GAPDH was used as an internal control to analyze the results.

[2] = test system: COL1A1, TGFB1, ACTA2, MMP2 mRNA in skin fibroblasts CCC-ESF-1; type: cell-based; details: CCC-ESF-1, 20 and 40 μmol/L, TGF-β1 5 ng/ml, 24 hours
Description: Method for TGFβ1 inducing skin fibroblasts CCC-ESF-1 and administrating Carrimycin and Isovalerylspiramycin I comprises: CCC-ESF-1 was cultured in DMEM, High Glucose, GlutaMAX™ (Gibco 10566016) culture medium containing 10% fetal bovine serum, mixture of 1% penicillin and 1% streptomycin at 37 DEG C and 5% CO2, and was plated in a 6-well according to 3×10^5 cells per well. After culturing for 24 hours, the original culture medium in the 6-well plate was removed by a vacuum pump, and DMEM culture medium without 10% fetal bovine serum was added to be starvation culture for 24 hours. And then TGF-β1 (5 ng/ml) induction was added, and at the same time different concentration gradients of Carrimycin and Isovalerylspiramycin I were added. The concentrations were 20 μmol/L and 40 μmol/L. The following groups were set, control group (without adding TGF-β1 induction), TGF-β1 induction group (only TGF-β1 induction is added) and TGF-β1 induction administration group (both adding TGF-β1 induction and treating with Carrimycin or Isovalerylspiramycin I).
After culturing for 24 hours, the culture medium was discarded, and the Total RNA of […] were extracted according to the operation steps of the TRIzol instructions. According to the operation steps of the instructions of Roche Transcriptor First Strand cDNA Synthesis Kit, Total RNA of LX-2 was reversely transcribed into cDNA. […]

[3] = test system: type I collagen α1 promoter COL1A1P; assay: COL1A1 promoter-luciferase reporter gene activity in LX2-COL cells; type: cell-based, human; details: 24 hours
Description: The constructed monoclonal cells LX2-COL stably expressing the type I collagen al promoter COL1A1P were spread on a 96-well plate with 2×10^4 cells per well. After the cell confluence is about 90%, different concentrations of medicament C (using Carrimycin or Isovalerylspiramycin I) were added, and each group of experiments has 4 replicate holes. Follow the instructions of Bright-Glo™ Luciferase Assay System, the medium in wells were removed after 24 hours, and 50 μl/well of any medium was added to each well. 50 μl of luciferase substrate was added to each well, and detection was performed after 2 min.

[4] = test system: COL1A1, TGFB1, ACTA2 mRNA in LX-2 cells; assay: Real-time PCR of main fibrosis markers in LX-2 cells induced by TGFβ1; type: cell-based, human; details: TGF-β1 2 ng/ml, 24 hours
Description: (§1) TGFβ1 induced LX-2 cells and medicament C (using Climycin (HB) or Isovalerylspiramycin I (HY)) administration treatment: LX-2 cells were cultured in DMEM, High Glucose, GlutaMAX™ (Gibco10566016) medium containing 10% fetal bovine serum and mixture of 1% […] and 1% penicillin at 37 DEG C and 5% CO2. 1×10^5 cells per well were plated on a 6-well plate. After 24 hours of culture, the original medium in the 6-well plate was removed by a vacuum pump and added with DMEM medium without 10% fetal bovine serum. After starvation for 24 hours, TGF-β1 (2 ng/ml) was added to induce cell, and different concentration gradients of Carrimycin or Isovalerylspiramycin I were added at the same time, the concentrations were 10 μmol/L and 20 μmol/L respectively. A control group (without adding TGF-β1 induction), TGF-β1 induction group (only TGF-β1 induction) and TGF-β1 induction administration group (both TGF-β1 induction and medicament C treatment) were set.
After culturing for 24 hours, the medium was discarded, and the total RNA of LX-2 cells were extracted according to the TRIzol instructions. Following the instructions of Roche Transcriptor First Strand cDNA Synthesis Kit, the LX-2 total RNA were to reverse transcribed into cDNA. […]

[5] = test system: COL1A1, TGFβ1, α-smooth muscle actin protein in LX-2 cells; assay: Western Blot of main fibrosis markers in LX-2 cells induced by TGFβ1; type: cell-based, human; details: 20 μmol/L, TGF-β1 2 ng/ml, 24 hours
Description: as §1
After the cells were induced by TGFβ1 and continued to be cultured for 24 hours, 1 ml of Ripa lysis solution (containing 1% PMSF) was added to each well of the 6-well plate to extract the protein. And the protein concentration was determined by the BCA method. The sample was loaded at 25 μg/20 μl per well. […]

[6] = in vivo; cited from earlier work

Compound | effect of inhibiting COL1A1, TGFB1, and ACTA2 at the mRNA level ([1]; MRC-5, 40 μmol/L) | effect of inhibiting COL1A1 at the mRNA level ([1]; MRC-5, 40 μmol/L) | expression of COL1A1 (mRNA) ([1]; MRC-5, with the increase of the dose (10, 20, 40 μmol/L)) | inhibition of COL1A1, TGFB1, ACTA2, and MMP2 (mRNA) [2] | luciferase luminescence (COL1A1 promoter activity) ([3]; 40 μM) | inhibitory effect on the activity of the COL1A1 promoter ([3]; LX2-COL cells, luciferase) | inhibitory effect on COL1A1, TGFB1, and ACTA2 at the mRNA level ([4]; 20 μmol/L) | expression of COL1A1, TGFB1, and ACTA2 (mRNA) ([4]; with the increase of the doses (10 and 20 μmol/L)) | expression of marker proteins COL1A1, TGFβ1, α-smooth muscle actin [5] | T1/2β [6] [h]
CO[C@@H]1[C@@H](O[C@@H]2O[C@H](C)[C@@H](O[C@H]3C[C@@](C)(O)[C@@H](OC(=O)CC(C)C)[C@H](C)O3)[C@H](N(C)C)[C@H]2O)[C@@H](CC=O)C[C@@H](C)[C@@H](O[C@H]2CC[C@H](N(C)C)[C@@H](C)O2)/C=C/C=C/C[C@@H](C)OC(=O)C[C@H]1O [Isovalerylspiramycin I] | the best | the best | decreases | significantly inhibit | decreased most significantly | significant inhibitory effect | best inhibitory effect | decreased | significantly inhibited | –
Carrimycin | – | – | – | – | – | – | – | – | – | 23 to 27
